Source: patent publication US20160184459A1, “CANCER CELL SPECIFIC IMAGING PROBES AND METHODS OF USE” (THE RESEARCH FOUNDATION FOR THE STATE UNIVERSITY OF NEW YORK, priority 2013, published 2016)

Assays:
Format in all cases: cell-based, human
[1] = tested on: malignant colon cancer cells with high HDAC and CTSL activity; assay: Cell counting, trypan blue exclusion and PI staining, malignant colon cancer cell lines; details: 54 μM
Experimental: (§1) FIG. 9. The colon cancer cell lines were grown for 5 d either with vehicle control DMSO (gray symbols) or 54 μM BKAc-Puro (red and blue symbols), and cell number was determined at the indicated time points.
FIG. 10. The cell lines were grown as in FIG. 8, cell viability was determined by trypan blue at the indicated time points, and is presented as the percentage of live cells treated with vehicle control (gray symbols) or BKAc-Puro (red and blue symbols).
FIG. 11. The cell lines were grown as in FIG. 8, and dead cells were determined after 80 h by PI signal under fluorescent microscope. BF, bright field. PI, fluorescent PI channel.
(§2) Cell number was determined by cell counting using improved Neubauer hemacytometer. Cell viability was calculated as the number of viable cells divided by the total number of cells using Trypan Blue Stain (Invitrogen) to distinguish non-viable cells. Data were obtained from duplicated samples with quadruplicate measurements. […] After additional 2-3 h incubation, the absorbance of the formazan at 490 nm was measured by the microplate reader. […] Determination of non-viable cells using PI staining was performed by adding 1 μg/ml of PI solution (Sigma) to the cell culture, prior to the examination under fluorescence microscopy (Axiovert 3, Carl Zeiss) through a×32 objective equipped with a digital imaging processor (Infinity 3, Lumenera).

[2] = tested on: non-malignant Caco-2 cells; assay: Cell counting, Caco-2; details: 54 μM, 5 d
Experimental: as §1
as §2, with “measurements. MTS based cell viability assay was performed using CellTiter 96 Aqueous Cell Proliferation Assay (Promega) according to the manufacturer's instruction. Either 1 μl of DMSO alone or variable concentrations of BKAc-Puro or Puro in DMSO were added to the cell lines seeded at 5×10^4 cells per well in 96-well tissue culture plates in 100 μl of the growth medium, followed by 3-5 d incubation at 37° C. with 5% CO2 atmosphere.” for “measurements.”

[3] = tested on: Puro-incorporated proteins in HCT116, HT29, CCD841-CoN and Caco-2 cells; assay: Immunoblotting of Puro-incorporated proteins in cell lysates; details: 16.9 μM, 20 h
Experimental: (§3) FIG. 27. Levels of Puro-incorporated proteins in the cells were monitored by immunoblotting. Indicated cell lines were treated either with vehicle control DMSO or Boc-KAc-Puro (16.9 μM) in the presence or absence of TSA (0.5 μM) for 20 h, followed by preparation of cell lysates. The lower panel (anti-α-Tubulin) serves as a loading control.
as §3, with “28.” for “27.”, “Puro (2.1” for “Boc-KAc-Puro (16.9”, “16” for “20”, “lysates. […]” for “lysates.”
Cultured cells or tissue samples were sonicated in RIPA lysis buffer (1% NP-40, 0.1% SDS, 50 mM Tris-HCl pH 7.4, 150 mM NaCl, 0.5% sodium deoxycholate, 1 mM EDTA) supplemented with PMSF and protease inhibitor cocktail (Roche) on ice followed by clarification. Protein lysates were separated on sodium dodecyl sulfate-polyacrylamide gels and transferred onto nitrocellulose membranes (Whatman). The primary antibodies used were anti-puromycin (3RH11, KeraFAST) and anti-α-tubulin (Sigma-Aldrich). Proteins of interest were detected with anti-mouse secondary antibody by chemiluminescence (ECL Kit, GE Healthcare Life Sciences).

`COc1ccc(CC(NC(=O)C(CCCCNC(C)=O)NC(=O)OC(C)(C)C)C(=O)NC2C(O)[C@H](n3cnc4c(N(C)C)ncnc43)O[C@@H]2CO)cc1` (stereo partly drawn) [BKAc-Puro, N-[3′-(α-Amino-p-methoxyhydrocinnamamido)-3′-deoxy-N,N-dimethyldenosinyl)-N-α-(t-butoxycarbonyl]-N-ε-acetyl-L-lysineamide] was tested, and the “Cell death (trypan blue exclusion, morphology, PI staining)” value [1] was “massive cell death”, the “Cell proliferation (cell number)” value ([1]; 5 d) was “impaired the proliferation” and the “Cell proliferation (cell number)” value [2] was “allowed them to proliferate to confluency”. For the same molecule, the “Intensity of Puro incorporation, malignant versus normal and non-malignant cells” value [3] was “substantially greater in malignant cancer cells” and the “Intensity of Puro incorporation in the presence of TSA” value ([3]; TSA 0.5 μM) was “compromised intensity”.
